Laboratory results published in ChEMBL document CHEMBL4346696, “PIM kinase inhibitors: Structural and pharmacological perspectives” (Eur J Med Chem, 2019).

Experiments:
[1] = target: T1, Serine/threonine-protein kinase pim-1 (Homo sapiens, UniProt P11309); experiment: Inhibition of N-terminal GST-tagged recombinant human full length Pim-1 expressed in Escherichia coli cells
[2] = test system: HT-29; experiment: Cytotoxicity against human HT-29 cells after 24 hrs by MTT assay; assay type: functional, cell-based; settings: HT-29, 24 h
[3] = test system: MCF7; experiment: Cytotoxicity against human MCF7 cells after 24 hrs by MTT assay; assay type: functional, cell-based; settings: MCF7, 24 h
[4] = Cytotoxicity against human […] cells after 24 hrs by MTT assay; assay type: functional, cell-based
[5] = target: T1, Serine/threonine-protein kinase pim-1; experiment: Inhibition of PIM1 (unknown origin)
[6] = organism: Homo sapiens; experiment: Selectivity ratio of IC50 for PI3kgamma (unknown origin) to Ki for PIM1 (unknown origin)
[7] = organism: Homo sapiens; experiment: Selectivity ratio of IC50 for PI3kdelta (unknown origin) to Ki for PIM1 (unknown origin)
[8] = organism: Homo sapiens; experiment: Selectivity ratio of IC50 for PI3kalpha (unknown origin) to Ki for PIM1 (unknown origin)

T1 sequence (P11309 whole entry): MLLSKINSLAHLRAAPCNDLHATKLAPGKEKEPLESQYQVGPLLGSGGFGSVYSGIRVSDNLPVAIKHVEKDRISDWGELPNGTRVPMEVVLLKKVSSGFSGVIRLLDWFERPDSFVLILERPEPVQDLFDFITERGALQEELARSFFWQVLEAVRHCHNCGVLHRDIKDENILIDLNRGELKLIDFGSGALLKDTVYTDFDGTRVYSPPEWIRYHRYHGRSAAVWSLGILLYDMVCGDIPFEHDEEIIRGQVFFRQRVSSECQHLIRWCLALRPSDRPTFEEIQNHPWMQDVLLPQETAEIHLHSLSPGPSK

## O=C1NC(=O)/C(=C/c2ccnc(N3CCC(CNCc4ccc5ccccc5n4)CC3)n2)S1
[1]
  Ki: 7.7 nM

## CSc1ncc(-c2cc(-c3ccc4c(c3)OCO4)[nH]c(=N)c2C#N)n1Cc1ccccc1
[2]
  IC50: > 130000 nM

## COc1cc(C2NC(=O)c3sc4nc(C)c(Br)c(C)c4c3N2)ccc1O (centres undefined)
[3]
  IC50: 60 to 1760 nM
[4]
  IC50: 60 to 1760 nM

## CSc1ncc(-c2cc(-c3ccc(Br)cc3)[nH]c(=N)c2C#N)n1Cc1ccccc1
[5]
  IC50: < 150 nM
[2]
  IC50: > 130000 nM

## CSc1ncc(-c2cc(-c3ccc(Br)cc3)[nH]c(=O)c2C#N)n1Cc1ccccc1
[5]
  IC50: < 150 nM
[2]
  IC50: > 130000 nM

## CC(C)(O)[C@H]1CC[C@H](Nc2ccc3ncc(-c4cccc(C(F)(F)F)c4)n3n2)CC1
[6]
  Ratio: 10
[7]
  Ratio: 10
[8]
  Ratio: 10

## Cc1nc2sc3c(c2c(C)c1Br)NC(c1ccc(O)c(O)c1)NC3=O (centres undefined)
[3]
  IC50: 60 to 1760 nM
[4]
  IC50: 60 to 1760 nM

## CSc1ncc(-c2cc(-c3ccc4c(c3)OCO4)[nH]c(=O)c2C#N)n1Cc1ccccc1
[2]
  IC50: > 130000 nM
